Patent publication US10111881B2 (priority 2016, dated 2018)

Columns and labels:
MARV = experiment: microbe, parasite or virus in culture; format: cell-based, Marburgvirus (Musoke strain); conditions: for IC50: read-out: IC-50 (MARV)
EBOV = experiment: organism not typed; format: cell-based, Zaire Ebolavirus (Mayinga strain); conditions: for IC50: read-out: IC-50 (EBOV)

SMILES	Curve class (MARV) (MARV)	IC50 (MARV)	Curve Class (EBOV) (EBOV)	IC50 (EBOV)
C=C1CC(C)OC(c2ccccc2OCC(O)CN2CCCCC2)C1 (centres unmarked) [MLS000042810]	1.2	25.5 µM	1.7	–
O=C(NC1CCCCC1)c1ccc(S(=O)(=O)N2CCCCC2)cc1 [MLS000063146]	1.2	25.4 µM	4	–
CCN1CCN(CCCNC(=O)c2cc3cc4ccc(OC)cc4nc3o2)CC1 [MLS000091920]	1.2	5.4 µM	4	–
O=C1C2CCCN2C(c2cccs2)N1c1ccc(Cl)cc1 (centres unmarked) [MLS000092187]	1.2	25.2 µM	1.4	–
Cc1cc(OCCCCCNCCO)cc(C)c1Cl [MLS000106706]	1.2	25.2 µM	1.5	0.595 µM
CC1(C)CC(NC(=O)N2c3ccccc3Sc3ccccc32)CC(C)(C)N1 [MLS000332573]	1.2	12.8 µM	1.3	6.02 µM
Cc1ccc(NC(=O)CN(C)C(=O)Cn2ncc(Cl)c(Cl)c2=O)cc1 [MLS000336293]	–	24 µM	4	–
O=C(COC(=O)/C=C/c1cccs1)Nc1nc(-c2ccccc2)cs1 [MLS000391391]	1.2	25.3 µM	1.4	–
CC(C)(C)c1cc(/C=N/O)cc(C(C)(C)C)c1O [MLS000391984]	1.2	6.12 µM	1.4	–
S=C(Nc1ccc(Cl)cc1)NC1CCN(Cc2ccccc2)CC1 [MLS000418057]	1.2	25.6 µM	4	–
CCN(CC)CCNC1=NCCn2c1cc1cc(OC)ccc12 [MLS000556387]	1.2	25.5 µM	1.6	2.93 µM
Cc1cc(C(=O)c2ccccc2)c(NC(=O)CCl)s1 [MLS000567464]	1.2	~44.4 µM	1.6	25.2 µM
Cc1ccc(NC(=O)ON=C2CCCC2)cc1 [MLS000569139]	1.2	12.7 µM	1.4	–
CCOc1cccc(CNCCO)c1OCc1ccc(Cl)cc1Cl.Cl [MLS000580080]	1.2	25.1 µM	1.3	24.6 µM
COc1ccc(C(C(=O)NC2CCCCC2)N(C(=O)CCl)c2ccc(C)cc2)cc1 (centres unmarked) [MLS000583959]	1.2	12.1 µM	1.3	12.4 µM
C=CCNCCOCCOc1ccc(Cl)cc1C(C)(C)C [MLS000666802]	–	25.2 µM	1.5	0.616 µM
CCCN1CCN(CCCNC(=O)c2cc3c(=O)[nH]c4ccc(C)cc4c3s2)CC1 [MLS000673118]	1.2	25.1 µM	1.3	25 µM
CCOC(=O)c1c(C)n(CC(O)CN(C)C)c2cc(Br)c(OC)cc12.Cl (centres unmarked) [MLS000684231]	1.2	4.88 µM	1.3	6.48 µM
CCCCN(CCCC)CCNC(=O)CSCc1ccc(C)cc1.O=C(O)C(=O)O [MLS000689481]	1.2	12.8 µM	1.3	12 µM
CCOc1cc(CNCCc2c[nH]c3ccccc23)cc(Cl)c1OC.Cl [MLS000718690]	1.2	25.3 µM	–	2.77 µM
Oc1ccc(N2CCN(Cc3ccc(OCCCN4CCCCC4)cc3)CC2)cc1 [MLS000736237]	1.2	14 µM	4	–
Oc1ccc(Nc2ccnc3cc(Cl)ccc23)cc1 [MLS000737975]	–	25.2 µM	4	–
Cc1cc(C)c2nc(C)cc(Nc3ccc(C(=O)NCCO)cc3)c2c1 [MLS000768081]	1.2	13.8 µM	4	–

SMILES	Curve class (MARV) (MARV)	IC50 (MARV)	Curve Class (EBOV) (EBOV)	IC50 (EBOV)
CCN(CC)CCCNc1nc(CN2CCOCC2)nc2sc3c(c12)CCC3 [MLS000772389]	1.2	24.8 µM	1.6	3.51 µM
O=C1COc2ccc(C(=O)CCl)cc2N1 [MLS000780111]	–	~38.8 µM	4	–
Fc1ccc(C(c2nnnn2Cc2cccs2)N2CCN(C3CCCCC3)CC2)cc1 (centres unmarked) [MLS000880330]	1.2	25.8 µM	1.6	6.38 µM
COc1ccc(NC(=O)C2C3C=CC4(O3)C2C(=O)N(CCN2CCCCC2)C4C(=O)NC2CCCC(C)C2C)cc1 (centres unmarked) [MLS000936259]	1.2	25.3 µM	1.3	12.5 µM
Cc1c(C(=O)NCCN(C)C)oc2ccc(S(=O)(=O)N3CCCC3)cc12 [MLS000936795]	1.2	25.4 µM	1.4	–
Cc1cc(NC(=O)CCN2CCN(C/C=C/c3ccccc3)CC2)ccc1Br.Cl [MLS000999960]	–	26.4 µM	1.6	3.28 µM
CCN1CCCC1CNCC(O)COc1ccc(C(C)(C)C)cc1C.O=C(O)C(=O)O (centres unmarked) [MLS001018888]	1.2	25.7 µM	1.3	12.2 µM
Cc1cc(Nc2ccc(Cl)cc2)nc(N2CCOCC2)n1 [MLS001029946]	1.2	~43.2 µM	1.6	1.52 µM
COc1ccc2c(c1)c(CCN)c(C)n2Cc1ccccc1.Cl [MLS001030162]	–	25.3 µM	1.3	6.41 µM
COc1ccccc1C(=O)O/N=C(\N)c1ccccn1 [MLS001045935]	1.2	27.9 µM	1.4	–
CN(C)c1cc(NC(=O)CN2CCCC2)c2ccccc2n1.O=C(O)C(=O)O [MLS001047402]	1.2	25.9 µM	1.2	5.26 µM
COc1ccc(C(CNC(=O)c2oc3ccc(OC)cc3c2C)N2CCCC2)cc1 (centres unmarked) [MLS001150589]	1.2	25.9 µM	4	–
COc1ccccc1CCN1CCCC(CN(C)CC(C)(C)CO)C1 (centres unmarked) [MLS001162808]	1.2	26.1 µM	1.3	7.25 µM
O=C(CCCN1CCc2[nH]c3ccc(F)cc3c2C1)c1ccc(F)cc1 [MLS001173370]	–	25.1 µM	1.3	3.06 µM
O=C(C#Cc1ccccc1)c1ccco1 [MLS001174896]	–	12.2 µM	–	12.4 µM
CCN(CC)CCNC(=O)c1ccc(NC(=O)c2ccccc2-c2ccc(C(F)(F)F)cc2)cc1 [MLS001175455]	1.2	25.4 µM	1.6	6.42 µM
Cc1cccc(C)c1OCC(O)CNC(C)c1ccccc1.Cl (centres unmarked) [MLS001177927]	1.2	25.8 µM	1.5	6.42 µM
Fc1ccc2c(c1)Sc1ccc(Cl)cc1CC2N1CCN(CCC2OCCO2)CC1 (centres unmarked) [MLS001179272]	1.3	25.4 µM	1.5	0.691 µM
COc1ccc2c(c1)CC(N1CCN(C)CC1)c1cc(OC)ccc1S2.O=C(O)/C=C\C(=O)O (centres unmarked) [MLS001179278]	1.2	12.5 µM	1.6	6.49 µM
CCN(CCNCC(O)COc1ccccc1C(C)C)c1cccc(C)c1.O=C(O)C(=O)O (centres unmarked) [MLS001179997]	–	25.5 µM	1.4	–
Cc1ccc(C(=O)N/C(=C/c2ccc(-c3ccc([N+](=O)[O-])cc3)o2)C(=O)NCCCN(C)C)cc1 [MLS001180408]	–	12.5 µM	4	–
OC(CN1CCCCC1)Cn1c2ccc(Cl)cc2c2cc(Cl)ccc21 (centres unmarked) [MLS001181479]	1.2	25.6 µM	4	–
